In patent US7709514B2, “Therapeutic molecules and methods-1” (Cortical Pty Ltd, priority 2002, dated 2010):
Like-named read-outs stand apart in the source and are kept apart here.

Tests used:
[1] = system: antigen-specific T cell activation; test: antigen-specific (mBSA) activation of splenic T lymphocytes, 3H-thymidine incorporation; assay type: cell-based, mice; conditions: for EC50: Mus musculus, T-cell, read-out: EC50, inhibition of T cell activation
Method: C57BL6/J male mice, aged 7-10 weeks old, were immunised with 200 μg of methylated bovine serum albumin (mBSA) dissolved in 20 μL of saline, emulsified in 200 μL of Freund's complete adjuvant (FCA) by subcutaneous injection. Seven (7) days later mice received a booster immunisation with 100 μg mBSA in 10 μL saline plus 100 μL FCA by subcutaneous injection. After a further seven (7) days mice were killed and spleens collected aseptically into Hanks buffered saline solution (HBSS). A single cell suspension was prepared in Petri dishes by flushing DMEM using a 26G needle and 2 mL syringe. The resulting cell suspension was centrifuged for 5-7 minutes and supernatant discarded. Erythrocytes were lysed using a solution containing 0.579% NH4Cl, 0.000037% EDTA, and 0.1% NaHCO3 in a 37° C. water bath. Tubes were then filled with DMEM and centrifuged for 5-7 minutes. The cell-containing pellet was then resuspended in DMEM containing 5% fetal calf serum TICS) and 0.05% 2-mercapto-ethanol at a concentration of 1×10^6 cells/mL and plated at 1×10^5 cells/well in 96-well plastic tissue culture plates. Test substances (compound or vehicle) were added and incubated for 1 hour in a 37° C., 5% CO2 incubator. The specific stimulating antigen, mBSA, was then added at 10-50 μg/ml and plates incubated for 30 hours in a 37° C., 5% CO2 incubator. Tritiated ^3H-thymidine was then added at a concentration of 0.5 μCi/well for a further 18 hours. Cells were harvested on a Packard cell harvester, and the harvested material added to 750 μL/tube scintillation fluid. Scintillation counts were read on a Wallac beta-emission counter.
The concentration at which T cell activation was suppressed by 50% compared to vehicle-only-treated cells (EC50) was calculated using Prism® software. […] Further compounds were also tested for their ability to inhibit antigen-specific T cell activation as a marker of the inhibition of the cytokine or biological activity of MIF using this assay. Table 5 lists the EC50 for each compound in this assay, performed with concentrations of mBSA of either 50 or 10 μg/ml.

[2] = system: cutaneous delayed-type hypersensitivity reactions; test: cutaneous delayed-type hypersensitivity (DTH) to mBSA; assay type: in vivo, mice; conditions: 15 mg/kg IP once per 24 hours; vs vehicle, p<0.05
Method: As noted above, cutaneous delayed-type hypersensitivity reactions (DTH) are an in vivo test of T cell activation. […] A compound which inhibits the cytokine of biological activity of MIF may be expected to inhibit the development of DTH reactions in vivo. DTH reactions were induced in mice developing antigen-induced arthritis (see below). C57BL6/J male mice, aged 7-10 weeks old, were immunized on day 0 with 200 μg methylated BSA (mBSA) emulsified in 200 μl of Freund's complete adjuvant (FCA) injected subcutaneously into the flank skin. Mice were treated with compound 5, administered by intraperitoneal injection, once per 24 hours at a dose of 15 mg/kg body weight. After seven days, mice received 100 μg mBSA and 100 μl FCA by intradermal injection at the base of the tail. After a further 14 days, arthritis was induced by intra-articular injection of 30 μg mBSA in 10 μl of sterile saline into the left knee, the right knee being injected with sterile saline alone. DTH reactions were induced as follows: these mice were challenged 24 h before the end of the experiment by intradermal injection of 50 μg mBSA in 20 μl saline into one hind footpad. […] Footpad swelling was quantified 24 h later using a micrometer. DTH was recorded as the difference in skin swelling between mBSA and saline-injected footpads, and expressed as change in footpad thickness (Δmm).

[3] = system: lymph node and splenic T cells; test: ex vivo antigen-specific T cell activation after in vivo treatment; design: species or system mice
Source text: In vivo administration of such a compound might be expected to exert effects on T cell responsiveness even after the T cells have been removed from exposure to the compound, that is, if T cells were studied ex vivo after in vivo treatment with the MIF antagonist compound. To measure ex vivo antigen-specific T cell activation, draining lymph nodes from arthritic limbs or spleens were removed from mice with murine antigen induced arthritis, induced as above with mBSA, at day 28 after first immunisation and a single cell suspension prepared in DMEM containing 5% FCS and 0.05% 2-mercaptoethanol. 1×10^5 cells/200 μl were cultured in triplicate in the presence or absence of mBSA (0.1, 1.0, 10 μg/ml) in 96-well plates for 48 hours (37° C., 5% CO2.) The T cell proliferation response was determined by measuring ^3H-thymidine incorporation during the final 18 hr. The cells were harvested and radioactivity incorporation into the DNA was measured with a Wallac 1409 liquid scintillation counter. The means of each triplicate culture were calculated. Each experiment comprised at least three individual animals and the results presented represent the mean±SEM of groups of animals in each experiment. The percentage inhibition of T cell proliferation was calculated using the result of the […] incorporation of cells from compound-treated animals subtracted from the ^3H-thymidine incorporation of cells from vehicle-treated animals.

[4] = system: MIF-induced proliferation of S112 human dermal fibroblasts; test: dermal fibroblast proliferation induced by recombinant MIF; assay type: cell-based; conditions: compound 0.013 μM
Method: The activity of compound 5 was studied in a bioassay utilising MIF-induced proliferation of human dermal fibroblasts. S112 human dermal fibroblasts were propagated in RPMI/10% foetal calf serum (FCS). Prior to experimentation, cells were seeded at 10^5 cells/ml in RPMI/0.1% 13SA for 18 hours. At time point zero, culture medium was replaced with RPMI/10% FCS and treatments administered. Cells were treated with recombinant human macrophage migration inhibitory factor (MIF) 50 ng/ml and/or compound 5 at a 1-1000 molar ratio to the concentration of MIF. At a time point 30 hours later, cells were pulsed with 1 μCi/well of ^3H-thymidine. At a time point 48 hours after commencement of the experiment, cells were harvested using a semi-automated cell harvester. The radioactivity incorporated into DNA was determined by liquid scintillation counting, with results expressed as [^3H] thymidine incorporation.

CCCCCOC(=O)c1ccc2[nH]c(=O)[nH]c2c1 [Compound 5]
effect on antigen-specific T cell activation ([1]; FIG. 8, mBSA 50 μg/mL, increasing concentrations): dose-dependent and statistically significant inhibitory effect | EC50 ([1]; mBSA 10 μg/ml): 15.3 µM | EC50 ([1]; mBSA 50 μg/ml): 13.8 µM | cutaneous DTH reactions (change in footpad thickness) [2]: statistically significant reduction | ex vivo activation of lymph node T cells in response to mBSA ([3]; FIG. 11a, vs vehicle): reduced proliferative responses | ex vivo splenic T cell proliferation in response to mBSA ([3]; FIG. 11b, table 7, vs vehicle): inhibitory effect | % inhibition of ex vivo splenic T cell activation ([3]; [mBSA] 1 μg/mL): 33% | % inhibition of ex vivo splenic T cell activation ([3]; [mBSA] 10 μg/mL): 30% | effect on proliferation of S112 cells treated with recombinant human MIF ([4]; FIG. 12): marked and statistically significant inhibitory effect | inhibition at 0.013 µM ([4]; Homo sapiens, Fibroblast, read-out: % inhibition of MIF-induced proliferation, rhMIF 50 ng/ml, S112, P < 0.001): 98%
